These results are taken from patent publication US20080027063A1, “IMIDAZOPYRAZINES AS PROTEIN KINASE INHIBITORS” (Schering Corporation, priority 2006, published 2008).

Structures are written as SMILES.

The subject of the experiment is CHK1. The experiment can be described thus: CHK1 SPA Assay. To be noted: recombinant His-CHK1, CDC25C biotinylated peptide, 1 μM ATP, 2 hours, room temperature. The experiment is classed as biochemical. The procedure:
CHK1 SPA Assay An in vitro assay was developed that utilizes recombinant His-CHK1 expressed in the baculovirus expression system as an enzyme source and a biotinylated peptide based on CDC25C as substrate (biotin-[…]). Materials and Reagents: 1) CDC25C […]-term Biotinylated peptide substrate (25 mg), stored at -20° C., Custom Synthesis by Research Genetics: biotin-[…] 2) His-CHK1 In House lot P976, 235 μg/mL, stored at -80° C. 3) D-PBS (without CaCl and MgCl): GIBCO, Cat.# 14190-144 4) SPA beads: Amersham, Cat.# SPQ0032: 500 mg/vial • Add 10 mls of D-PBS to 500 mg of SPA beads to make a working concentration of 50 mg/ml. Store at 4° C. Use within 2 week after hydration. 5) 96-Well White Microplate with Bonded GF/B filter: Packard, Cat.# 6005177 6) Top seal-A 96 well Adhesive Film: Perkin Elmer, Cat.# 6005185 7) 96-well Non-Binding White Polystyrene Plate: Corning, Cat. # 6005177 8) MgCl2: Sigma, Cat.# M-8266 9) DTT: Promega, Cat.# V3155 10) ATP, stored at 4° C.: Sigma, Cat.# A-5394 11) γ^33P-ATP, 1000-3000 Ci/mMol: Amersham, Cat.# AH9968 12) NaCl: Fisher Scientific, Cat.# BP358-212 13) H3PO4 85% Fisher, Cat.#A242-500 14) Tris-HCL pH 8.0: Bio-Whittaker, Cat. # 16-[…] 15) Staurosporine, 100 ug: CALBIOCHEM. Cat. # 569397 16) Hypure Cell Culture Grade Water, 500 mL: HyClone, Cat.# SH30529.02 Reaction Mixtures: 1) Kinase Buffer: 50 mM Tris pH 8.0; 10 mM MgCl2; 1 mM DTT 2) His-CHK1, In House Lot P976, MW 30 KDa, stored at -80° C. 6 nM is required to yield positive controls of 5,000 CPM. For 1 plate (100 rxn): dilute 8 μL of 235 ug/mL (7.83 uM) stock in 2 mL Kinase Buffer. This makes a 31 nM mixture. Add 20 μL/well. This makes a final reaction concentration of 6 nM. 3) CDC25C Biotinylated peptide. Dilute CDC25C to 1 mg/mL (385 uM) stock and store at -20° C. For 1 plate (100 rxn): dilute 10 μL of 1 mg/mL peptide stock in 2 ml Kinase Buffer. This gives a 1.925 uM mix. Add 20 μL/rxn. This makes a final reaction concentration of 385 nM 4) ATP Mix. For 1 plate (100 rxn): dilute 10 μL of 1 mM ATP (cold) stock and 2 μL fresh P33-ATP (20 μCi) in 5 ml Kinase Buffer. This gives a 2 uM ATP (cold) solution; add 50 μl/well to start the reaction. Final volume is 100 μl/rxn so the final reaction concentrations will be 1 uM ATP (cold) and 0.2 μCi/reaction. 5) Stop Solution: For 1 plate add: To 10 mL Wash Buffer 2 (2M NaCl 1% H3PO4): 1 mL SPA bead slurry (50 mg); Add 100 μL/well 6) Wash buffer 1: 2 M NaCl 7) Wash buffer 2: 2 M NaCl, 1% H3PO4 Assay Procedure: [table] 1) Dilute compounds to desired concentrations in water/10% DMSO-this will give a final DMSO concentration of 1% in the reaction. Dispense 10 μl/rxn to appropriate wells. Add 10 μL 10% DMSO to positive (CHK1+CDC25C+ATP) and negative (CHK1+ATP only) control wells. […]
One may read the IC50 as the concentration needed to halve the response being measured. As to `Cc1ccc(-c2cnc(N)c3nc(C4CCCNC4)cn23)s1` (stereo not shown), the IC50 is 216 nM. The value for `Nc1ncc(-c2cc3ccccc3s2)n2cc(C3CCCNC3)nc12` (stereo not shown) was 187 nM; that for `Nc1ncc(-c2cc(-c3ccccc3)cs2)n2cc([C@H]3CCCNC3)nc12` was 139 nM; that for `Nc1ncc(-c2cc(-c3ccc(Cl)cc3)cs2)n2cc([C@H]3CCCNC3)nc12` was 84 nM.
